# According to PubChem BioAssay AID1963426 (Molecular Pharmacology Branch, DTP, NCI, 2024):
# “And” between values parts separate entries of the source, which are not always exact repeats. Equal entries are not always repeated.
# Tested on: 186277-243-T-J2-PDC complex spheroid growth, % test/control
# Experiment: Anticancer human tumor 186277-243-T-J2-PDC patient-derived colon adenocarcinoma cell line growth inhibition [Asc]
# Settings: for viability, T/C: stronger effect = lower value
# How it was run: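 Complex spheroids combining tumor cells with HUVEC endothelial cells and human MSCs, at 37 degrees C, 5% CO2; agents tested alone or combined, half-log dilutions from at or near clinical Cmax, or 10 microM if Cmax unknown.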
# [1] = curve of first compound, second compound 0.1 µM
# [2] = curve of first compound, second compound 0.316 µM
# [3] = curve of first compound, second compound 1 µM
# [4] = curve of first compound, second compound 3.16 µM
# [5] = curve of first compound, second compound 10 µM
# [6] = second compound 0.1 µM, first compound 0.0316 µM
# [7] = second compound 0.1 µM, first compound 0.1 µM
# [8] = second compound 0.1 µM, first compound 0.316 µM
# [9] = second compound 0.1 µM, first compound 1 µM
# [10] = second compound 0.316 µM, first compound 0.0316 µM
# [11] = second compound 0.316 µM, first compound 0.1 µM
# [12] = second compound 0.316 µM, first compound 0.316 µM
# [13] = second compound 0.316 µM, first compound 1 µM
# [14] = second compound 1 µM, first compound 0.0316 µM
# [15] = second compound 1 µM, first compound 0.1 µM
# [16] = second compound 1 µM, first compound 0.316 µM
# [17] = second compound 1 µM, first compound 1 µM
# [18] = second compound 3.16 µM, first compound 0.0316 µM
# [19] = second compound 3.16 µM, first compound 0.1 µM
# [20] = second compound 3.16 µM, first compound 0.316 µM
# [21] = second compound 3.16 µM, first compound 1 µM
# [22] = second compound 10 µM, first compound 0.0316 µM
# [23] = second compound 10 µM, first compound 0.1 µM
# [24] = second compound 10 µM, first compound 0.316 µM
# [25] = second compound 10 µM, first compound 1 µM
# [26] = second compound 0.1 µM, first compound 3.16 µM
# [27] = second compound 0.1 µM, first compound 10 µM
# [28] = second compound 0.316 µM, first compound 3.16 µM
# [29] = second compound 0.316 µM, first compound 10 µM
# [30] = second compound 1 µM, first compound 3.16 µM
# [31] = second compound 1 µM, first compound 10 µM
# 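Note: spheroids exposed to agents for 7 days.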
# 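Throughout, for viability, T/C: 100% = DMSO vehicle control wells.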
smiles,measurement,setting,value
CCN1CCN(Cc2ccc(Nc3ncc(F)c(-c4cc(F)c5nc(C)n(C(C)C)c5c4)n3)nc2)CC1 + Cc1c(S(C)(=O)=O)c(-c2cc(F)cc(N3CCN(c4ccc(NS(=O)(=O)c5ccc(NC(CCN6CCC(C(=O)OCCCP(=O)(O)O)CC6)CSc6ccccc6)c(S(=O)(=O)C(F)(F)F)c5)cc4)CC3)c2)c(-c2ccc(Cl)cc2)n1C(C)C,IC50,[1],> 1 µM
same,IC50,[2],> 1 µM
same,IC50,[3],> 1 µM
same,IC50,[4],0.788 µM
same,IC50,[5],0.738 µM
same,"viability, T/C","second compound 0.1 µM, first compound 0.00316 µM",107%
same,"viability, T/C","second compound 0.1 µM, first compound 0.01 µM",99.1%
same,"viability, T/C",[6],103%
same,"viability, T/C",[7],125%
same,"viability, T/C",[8],123%
same,"viability, T/C",[9],75.3%
same,"viability, T/C","second compound 0.316 µM, first compound 0.00316 µM",95.2%
same,"viability, T/C","second compound 0.316 µM, first compound 0.01 µM",94.1%
same,"viability, T/C",[10],103%
same,"viability, T/C",[11],115%
same,"viability, T/C",[12],114%
same,"viability, T/C",[13],67.7%
same,"viability, T/C","second compound 1 µM, first compound 0.00316 µM",86.6%
same,"viability, T/C","second compound 1 µM, first compound 0.01 µM",99.6%
same,"viability, T/C",[14],102%
same,"viability, T/C",[15],120%
same,"viability, T/C",[16],101%
same,"viability, T/C",[17],56.7%
same,"viability, T/C","second compound 3.16 µM, first compound 0.00316 µM",96.4%
same,"viability, T/C","second compound 3.16 µM, first compound 0.01 µM",89.8%
same,"viability, T/C",[18],101%
same,"viability, T/C",[19],113%
same,"viability, T/C",[20],89.8%
same,"viability, T/C",[21],39.6%
same,"viability, T/C","second compound 10 µM, first compound 0.00316 µM",91.3%
same,"viability, T/C","second compound 10 µM, first compound 0.01 µM",84.3%
same,"viability, T/C",[22],100%
same,"viability, T/C",[23],110%
same,"viability, T/C",[24],93.5%
same,"viability, T/C",[25],34.2%
Cn1ncnc1[C@H]1c2n[nH]c(=O)c3cc(F)cc(c23)N[C@@H]1c1ccc(F)cc1,"viability, T/C",compound 0.000316 µM,93% and 95.2% and 74.1%
same,"viability, T/C",compound 0.001 µM,99.3% and 88.2% and 97.6%
same,"viability, T/C",compound 0.00316 µM,108% and 104% and 99.5%
same,"viability, T/C",compound 0.01 µM,116% and 118% and 84.3%
same,"viability, T/C",compound 0.0316 µM,118% and 122% and 108%
same,"viability, T/C",compound 0.1 µM,111% and 134% and 100%
same,IC50,curve of compound,> 0.1 µM
O=C(c1cc(Cc2n[nH]c(=O)c3ccccc23)ccc1F)N1CCN(C(=O)C2CC2)CC1 + Cc1c(S(C)(=O)=O)c(-c2cc(F)cc(N3CCN(c4ccc(NS(=O)(=O)c5ccc(NC(CCN6CCC(C(=O)OCCCP(=O)(O)O)CC6)CSc6ccccc6)c(S(=O)(=O)C(F)(F)F)c5)cc4)CC3)c2)c(-c2ccc(Cl)cc2)n1C(C)C,IC50,[1],> 10 µM
same,IC50,[2],> 10 µM
same,IC50,[3],7.98 µM
same,IC50,[4],4.39 µM
same,IC50,[5],4.74 µM
same,"viability, T/C",[6],96.9%
same,"viability, T/C",[7],87.8%
same,"viability, T/C",[8],99.3%
same,"viability, T/C",[9],114%
same,"viability, T/C",[26],103%
same,"viability, T/C",[27],91.8%
same,"viability, T/C",[10],89.1%
same,"viability, T/C",[11],101%
same,"viability, T/C",[12],96.2%
same,"viability, T/C",[13],104%
same,"viability, T/C",[28],86.3%
same,"viability, T/C",[29],65.8%
same,"viability, T/C",[14],99.7%
same,"viability, T/C",[15],101%
same,"viability, T/C",[16],96.2%
same,"viability, T/C",[17],96.5%
same,"viability, T/C",[30],86.7%
same,"viability, T/C",[31],40.7%
same,"viability, T/C",[18],96%
same,"viability, T/C",[19],93.5%
same,"viability, T/C",[20],109%
same,"viability, T/C",[21],93%
same,"viability, T/C","second compound 3.16 µM, first compound 3.16 µM",60.5%
same,"viability, T/C","second compound 3.16 µM, first compound 10 µM",24%
same,"viability, T/C",[22],92.6%
same,"viability, T/C",[23],95.1%
same,"viability, T/C",[24],96.5%
same,"viability, T/C",[25],88.9%
same,"viability, T/C","second compound 10 µM, first compound 3.16 µM",67.6%
same,"viability, T/C","second compound 10 µM, first compound 10 µM",17.9%
C=C(F)C(=O)N1CCN(c2nc(OCC3CCCN3C)nc3c2CCN(c2cccc4cccc(Cl)c24)C3)CC1CC#N (configuration not stated) + CNC(C)C(=O)NC1CN(S(=O)(=O)c2cccc(S(=O)(=O)N3CCC4CCC(C(=O)NC(c5ccccc5)c5ccccc5)N4C(=O)C(NC(=O)C(C)NC)C3)c2)CCC2CCC(C(=O)NC(c3ccccc3)c3ccccc3)N2C1=O,IC50,"curve of first compound, second compound 0.01 µM",8.07 µM
same,IC50,"curve of first compound, second compound 0.0316 µM",7.28 µM
same,IC50,[1],6.66 µM
same,IC50,[2],6.86 µM
same,IC50,[3],6.26 µM
same,"viability, T/C","second compound 0.01 µM, first compound 0.0316 µM",133%
same,"viability, T/C","second compound 0.01 µM, first compound 0.1 µM",122%
same,"viability, T/C","second compound 0.01 µM, first compound 0.316 µM",117%
same,"viability, T/C","second compound 0.01 µM, first compound 1 µM",112%
same,"viability, T/C","second compound 0.01 µM, first compound 3.16 µM",121%
same,"viability, T/C","second compound 0.01 µM, first compound 10 µM",33.9%
same,"viability, T/C","second compound 0.0316 µM, first compound 0.0316 µM",108%
same,"viability, T/C","second compound 0.0316 µM, first compound 0.1 µM",109%
same,"viability, T/C","second compound 0.0316 µM, first compound 0.316 µM",99.2%
same,"viability, T/C","second compound 0.0316 µM, first compound 1 µM",102%
same,"viability, T/C","second compound 0.0316 µM, first compound 3.16 µM",117%
same,"viability, T/C","second compound 0.0316 µM, first compound 10 µM",28.2%
same,"viability, T/C",[6],108%
same,"viability, T/C",[7],109%
same,"viability, T/C",[8],120%
same,"viability, T/C",[9],119%
same,"viability, T/C",[26],131%
same,"viability, T/C",[27],13.1%
same,"viability, T/C",[10],127%
same,"viability, T/C",[11],120%
same,"viability, T/C",[12],104%
same,"viability, T/C",[13],118%
same,"viability, T/C",[28],132%
same,"viability, T/C",[29],15.8%
same,"viability, T/C",[14],113%
same,"viability, T/C",[15],102%
same,"viability, T/C",[16],117%
same,"viability, T/C",[17],108%
same,"viability, T/C",[30],118%
same,"viability, T/C",[31],7.88%
